Square brackets hold non-standard residues; d marks the D form. Peptide text beside a SMILES is read from it. Nle = CCCC[C@H](N)C(=O)O
Key:
[1] = Pharmacokinetics of conjugated teduglutide in rats (commercial GLP2 ELISA kit); type: in vivo; conditions: SD rats
Procedure: Plasma samples were collected at pre-dose, 0.5, 2, 4, 8, 12, 24, 48, 72, 96, 168, 216, and 240 hours post dose. The levels of conjugates and free teduglutide were measured using commercial GLP2 ELISA kit.

[2] = test system: small intestine; assay: Intestine weight model in rats; type: in vivo, SD rats
In short: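 Rat intestinal growth model: conjugates given s.c. at 0.5–8.0 mg/kg peptide dose, as one injection, on days 1 and 3, or every 6 days; small intestine weighed on day 3, 6, 7, 10, 12 or 14. Histology (H&E, duodenum/jejunum/ileum) gave crypt+villus length. Both reported as % increase over vehicle.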

[3] = Stability of GLP-2 analogues on incubation at 37° C. (appearance, O.D. reading, RP-HPLC); type: physicochemical; conditions: following 48 h incubation at 37° C.
Procedure: The GLP-2 analogues were tested for stability via appearance, O.D. reading (A.280, and A.325) and RP-HPLC (purity, and peak area) following t=0, 1 day, and 48 h incubation at 37° C.

[4] = Apraglutide, as previously reported, cited from earlier work
[5] = 2-compartmental pharmacokinetic modelling (MONOLIX 2018R2); type: in vivo, rat; conditions: rat, in vivo
Procedure: An in-depth PK modeling was performed to address the unexpected differences in half life, distribution, and pharmacological effect between V4, Cys-FMS-V4, and Apraglutide in the rat model. The analysis was performed with MONOLIX 2018R2 suite using a 2-compartmental pharmacokinetic model. The data used in this analysis was comprised from 3 independent experiments (data is presented as their average). The concentration versus time data of V4 that was formed from the Cys-FMS-V4 conjugate (the hydrolyzed peptide) was described appropriately using the values of the pharmacokinetic parameters of V4 peptide. Thus, the disposition of the hydrolyzed V4 was identical to that of the V4 peptide following the IV and SC administration.
The pharmacokinetics of Apraglutide in our studies was determined after SC administration. […] Based on this assumption, the values of volumes of distribution and clearance (Vpept, Vss, Vbeta, and CL) were calculated for Apraglutide (Table 13). The values of the other parameters of Apraglutide in Table 14 (the rate constants and the half-lives) are not dependent on this assumption.

[6] = molecular target: T1, GLP-2 receptor (Homo sapiens, UniProt O95838); assay: GLP-2 receptor Cell Based Assay (CBA); conditions: EC50 (nM) Average, average of 3 independent CBA; different GLP-2R Assay Kit lot (Table 8)
T1 sequence (O95838 1-553): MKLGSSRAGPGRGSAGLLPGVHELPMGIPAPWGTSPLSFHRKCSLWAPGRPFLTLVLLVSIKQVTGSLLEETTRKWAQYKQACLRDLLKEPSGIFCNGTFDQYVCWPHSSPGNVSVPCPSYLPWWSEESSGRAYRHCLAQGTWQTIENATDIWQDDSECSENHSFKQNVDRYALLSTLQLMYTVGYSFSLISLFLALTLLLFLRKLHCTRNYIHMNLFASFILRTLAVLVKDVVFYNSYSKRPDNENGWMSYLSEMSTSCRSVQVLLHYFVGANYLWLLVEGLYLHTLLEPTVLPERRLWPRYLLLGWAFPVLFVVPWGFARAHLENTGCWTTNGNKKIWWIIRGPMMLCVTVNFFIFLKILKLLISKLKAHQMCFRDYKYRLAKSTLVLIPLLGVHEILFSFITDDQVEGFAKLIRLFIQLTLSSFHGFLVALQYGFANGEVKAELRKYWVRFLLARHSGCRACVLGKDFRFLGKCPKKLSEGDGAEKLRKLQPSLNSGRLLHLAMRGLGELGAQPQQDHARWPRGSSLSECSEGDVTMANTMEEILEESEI
Procedure: Evaluation of in vitro binding affinity of the different peptides was assessed by using Cell Based Assay (CBA) in the presence of escalating doses of the different peptides.

[7] = PK after single SC injection in rats (LC-MS/MS); conditions: rat, in vivo, 2 mg/kg
Procedure: To support the pharmacodynamic effects of V4 and Cys-FMS-V4 as detailed in Example 9, a pharmacokinetic analysis was also conducted. In this study (Study reference 15204), all animals were injected SC on Day 1 with 2 mg/kg peptide content of V4, Cys-FMS-V4 and Apraglutide. Blood samples were collected at 2, 8, 12, 24, 36, 48, 72, 96, 120 hours, and Days 7, 8, 9, 10, 11, 12, 13 and 14 post-dose administration and subsequently taken to LC-MS/MS analysis to determine plasma levels of each compound. For Cys-FMS-V4, a 2-analyte method was applied to determine the plasma concentrations of both the full conjugate and the V4 that was hydrolyzed from it (V4 hydrolyzed). Plasma concentrations (μM), as measured by using the LC-MS/MS method, of V4 peptide, Cys-FMS-V4, hydrolyzed V4, and Apraglutide are presented in FIG. 17.

[8] = circulating native GLP-2; in humans; cited from earlier work
[9] = molecular target: T2, GLP-2 receptor (UniProt O95838 1-553, limits assumed); assay: cell-based or functional assay
T2 sequence (looked up): T1 sequence (O95838 1-553)

[10] = molecular target: T2, GLP-2 receptor; assay: cell-based or functional assay; remark: listed apart in the source

## CC[C@H](C)[C@H](NC(=O)[C@H](Cc1ccccc1)NC(=O)[C@H](CC(=O)O)NC(=O)[C@H](CCCNC(=N)N)NC(=O)[C@H](C)NC(=O)[C@H](C)NC(=O)[C@H](CC(C)C)NC(=O)[C@H](CC(N)=O)NC(=O)[C@H](CC(=O)O)NC(=O)[C@H](CC(C)C)NC(=O)[C@@H](NC(=O)[C@@H](NC(=O)[C@H](CC(N)=O)NC(=O)[C@H](CCSC)NC(=O)[C@H](CCC(=O)O)NC(=O)[C@H](CC(=O)O)NC(=O)[C@H](CO)NC(=O)[C@H](Cc1ccccc1)NC(=O)[C@H](CO)NC(=O)CNC(=O)[C@H](CC(=O)O)NC(=O)CNC(=O)[C@@H](N)Cc1c[nH]cn1)[C@@H](C)O)[C@@H](C)CC)C(=O)N[C@@H](CC(N)=O)C(=O)N[C@@H](Cc1c[nH]c2ccccc12)C(=O)N[C@@H](CC(C)C)C(=O)N[C@H](C(=O)N[C@@H](CCC(N)=O)C(=O)N[C@H](C(=O)N[C@@H](CCCCN)C(=O)N[C@H](C(=O)N[C@H](C(=O)N[C@@H](CC(=O)O)C(=O)O)[C@@H](C)O)[C@@H](C)CC)[C@@H](C)O)[C@@H](C)CC [GLP-2-Gly2, reference compound]
[1]; single injection
  Time up to which detectable in plasma: up to 4 hours
[1]; rat, plasma, injected once at 2 mg/kg peptide dose, read-out: Half-Life (t1/2, hr) (converted)
  half-life: 0.9 h
[2]; 2.5 mg/kg daily injections for five days (5 injections), average of five studies
  Increase of intestine weight over vehicle (%): 25%
[2]; SD rats, SC on days 1 and 3 at 1 mg/kg peptide dose (2 injections), intestine weight on day 6
  Average Intestine weight (gr): 5.7 gr
[2]; SD rats, SC on days 1 and 3 at 1 mg/kg peptide dose (2 injections), intestine weight on day 6, listed as GLP-2-Gly2 (Teduglutide), 1 mg/kg
  Increase of intestine weight over vehicle (%): 5%
[2]; SD rats, SC on days 1 and 3 at 1 mg/kg peptide dose (2 injections), intestine weight on day 6, listed as teduglutide, 1 mg/kg
  Increase of intestine weight over vehicle (%): did not increase intestine weight compared to vehicle

## CCCC[C@H](NC(=O)[C@H](CCC(=O)O)NC(=O)[C@H](CC(=O)O)NC(=O)[C@H](CO)NC(=O)[C@H](Cc1ccccc1)NC(=O)[C@H](CO)NC(=O)CNC(=O)[C@H](CC(=O)O)NC(=O)CNC(=O)[C@@H](N)Cc1cnc[nH]1)C(=O)N[C@H](Cc1ccccc1)C(=O)N[C@H](C(=O)N[C@H](C(=O)N[C@@H](CC(C)C)C(=O)N[C@@H](CC(=O)O)C(=O)N[C@@H](CC(C)C)C(=O)N[C@@H](CC(C)C)C(=O)N[C@@H](C)C(=O)N[C@@H](C)C(=O)N[C@@H](CCCNC(=N)N)C(=O)N[C@@H](CC(=O)O)C(=O)N[C@@H](Cc1ccccc1)C(=O)N[C@H](C(=O)N[C@@H](CC(N)=O)C(=O)N[C@@H](Cc1c[nH]c2ccccc12)C(=O)N[C@@H](CC(C)C)C(=O)N[C@H](C(=O)N[C@@H](CCC(N)=O)C(=O)N[C@H](C(=O)N[C@@H](CCCCN)C(=O)N[C@H](C(=O)N[C@H](C(=O)N[C@@H](CC(=O)O)C(N)=O)[C@@H](C)O)[C@@H](C)CC)[C@@H](C)O)[C@@H](C)CC)[C@@H](C)CC)[C@@H](C)CC)[C@@H](C)O [Variant 1, reference compound] (H-HGDGSFSDE[Nle][dF]TILDLLAARDFINWLIQTKITD-NH2)
[3]
  Solubility via appearance: V1: opaque
[3]; change of main peak
  Stability via RP-HPLC main peak: V1: −20%
[4]; assumed absolute SC bioavailability in rats
  Fpept: 0.74
[4]; assumed
  Absolute bioavailability following SC administration in rats: 74%
[5]
  k12: 0.0065 h⁻¹
  k21: 0.0068 h⁻¹
  ka—pept: 0.1661 h⁻¹
  kpepte: 0.0855 h⁻¹
[5]; sc
  CL: 0.222 mL/min/kg
  Vd: 2.12 L/kg
  Vpept: 0.156 L/kg
  Vss: 0.303 L/kg
[5]; sc, t1/2 absorption
  half-life: 4.17 h
[5]; t1/2 alpha
  half-life: 7.5 h
[5]; t1/2 beta
  half-life: 110 h
[6]
  EC50: 1.7 nM
[7]
  AUC(0-inf): 29.4 µM·h
  AUC(0-t): 29.2 µM·h
  CL/F: 0.3 mL/min/kg
  Cmax: 1950 nM
  Time post injection up to which detectable in blood: ≤ 120 h
  Tmax: 8 h
  Vd/F: 0.38 L/kg
  half-life: 14.5 h

## NH2-HADGSFSDEMNTILDNLAARDFINWLIQTKITD-COOH [native GLP-2]
[8]
  Biological (in vivo) half-life: approximately 7 minutes

B1: GLP-2 Variant #4 (peptide)
peptide: H-HGEGSFSDE[Nle]NTILDLLAARDFINWLIQTKITD-NH2
SMILES: CCCC[C@H](NC(=O)[C@H](CCC(=O)O)NC(=O)[C@H](CC(=O)O)NC(=O)[C@H](CO)NC(=O)[C@H](Cc1ccccc1)NC(=O)[C@H](CO)NC(=O)CNC(=O)[C@H](CCC(=O)O)NC(=O)CNC(=O)[C@@H](N)Cc1c[nH]cn1)C(=O)N[C@@H](CC(N)=O)C(=O)N[C@H](C(=O)N[C@H](C(=O)N[C@@H](CC(C)C)C(=O)N[C@@H](CC(=O)O)C(=O)N[C@@H](CC(C)C)C(=O)N[C@@H](CC(C)C)C(=O)N[C@@H](C)C(=O)N[C@@H](C)C(=O)N[C@@H](CCCNC(=N)N)C(=O)N[C@@H](CC(=O)O)C(=O)N[C@@H](Cc1ccccc1)C(=O)N[C@H](C(=O)N[C@@H](CC(N)=O)C(=O)N[C@@H](Cc1c[nH]c2ccccc12)C(=O)N[C@@H](CC(C)C)C(=O)N[C@H](C(=O)N[C@@H](CCC(N)=O)C(=O)N[C@H](C(=O)N[C@@H](CCCCN)C(=O)N[C@H](C(=O)N[C@H](C(=O)N[C@@H](CC(=O)O)C(N)=O)[C@@H](C)O)[C@@H](C)CC)[C@@H](C)O)[C@@H](C)CC)[C@@H](C)CC)[C@@H](C)CC)[C@@H](C)O
[9]
  EC50 Ratio to Teduglutide, CBA: 3.8 fold
  EC50 [nM], Cell Based Assay (CBA), cells overexpressing the GLP-2 receptor: 21.6 nM
[10]
  EC50 (nM) Average, GLP2-receptor CBA, 3 independent assays: 1 nM
  EC50 Ratio to Teduglutide, GLP2-receptor CBA: 1.8 fold

Reference: US20200254065A1, “LONG-ACTING GLP-2 ANALOGS” (OPKO Biologics Ltd., priority 2019, published 2020)
